How the values were obtained:
human GRPR = target: T1, human GRPR (Homo sapiens, UniProt P30550); assay: Competition binding assay, displacement of [125I]I-[Tyr4]BBN from PC-3 cell membranes; details: PC-3 cell membrane homogenates, 1 h at 22 °C, pH 7.4, mean ± SD of three experiments in triplicate, read-out: IC50, binding affinity for the human GRPR
T1 construct: displacement of the [^125I]I-[Tyr^4]BBN radioligand from freshly harvested PC-3 cell membranes; host or cells: PC-3 human prostate adenocarcinoma cells (membrane homogenate)
T1 sequence (P30550 whole entry): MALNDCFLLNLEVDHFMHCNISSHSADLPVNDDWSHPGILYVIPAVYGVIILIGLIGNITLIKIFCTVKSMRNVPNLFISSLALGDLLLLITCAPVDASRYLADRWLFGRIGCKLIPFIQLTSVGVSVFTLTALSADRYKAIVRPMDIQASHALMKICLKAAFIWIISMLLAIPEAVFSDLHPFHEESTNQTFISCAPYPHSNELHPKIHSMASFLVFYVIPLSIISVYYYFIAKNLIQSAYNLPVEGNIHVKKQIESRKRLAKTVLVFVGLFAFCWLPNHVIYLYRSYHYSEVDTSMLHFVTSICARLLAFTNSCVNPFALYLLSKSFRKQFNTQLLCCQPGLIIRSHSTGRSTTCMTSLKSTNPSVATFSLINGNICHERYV
Method: 2.4. Competition Binding Assays in PC-3 Cell-Membranes
Rapid filtration through glass fiber filters (Whatman GF/B, presoaked in binding buffer for at least 1 h) on a Brandel Cell Harvester (Adi Hassel Ingenieur Büro, Munich, Germany) and rinsing with ice-cold washing buffer (10 mM HEPES pH 7.4, 150 mM NaCl) followed. Filter radioactivity was measured in a gamma counter (automated multi-sample well-type instrument with a NaI(Tl) 3” crystal, Canberra Packard Cobra^TM Quantum U5003/1, Auto-Gamma® counting system). […] Values are expressed as mean ± standard deviation (SD) of three experiments performed in triplicate.

BC patients = details: two advanced BC patients, imaging 15 min-24 h pi
Method: Two BC patients were tested for the potential of pathological lesion detection after injection of [^99mTc]Tc-DB15.
A single dose of [^99mTc]Tc-DB15 (5-mL, 700–800 MBq corresponding to 20 μg DB15) was administered as a slow intravenous (iv) injection over 1 min. Vital signs (pulse rate, systolic and diastolic BP) were measured prior to the injection of [^99mTc]DB15 as well as within 15 min pi. Likewise, ECGs were performed prior to the injection, continuously during the injection and for 15 min pi. ECG and vital signs were measured again after the last scan was completed and blood tests for hematology and biochemistry (glucose, creatinine, bilirubin, transaminases, sodium, potassium, calcium) were performed. The laboratory evaluation was repeated 7, 14 and 28 days after imaging. Adverse events (AEs) were assessed and graded according to National Cancer Institute Common Toxicity Criteria for Adverse Events (CTCAE) Version 3.0.
Gamma camera imaging was performed on a Symbia Intevo Bold dual-head SPECT/CT scanner (Siemens Healthineers AG; Erlangen, Germany) equipped with a 16-slice CT scanner. Planar imaging of the whole body and SPECT/CT images of the thorax were obtained 15 min, 1 h, 3 h, and 24 h pi. Planar and SPECT/CT images were inspected for increased uptake by two experienced nuclear medicine specialists.

PC-3 cells = assay: Time-dependent uptake of [99mTc]Tc-DB15 in PC-3 cells; type: cell-based, human
Method: (§1) 2.5. Time-Dependent Uptake of [^99mTc]Tc-DB15 in PC-3 and T-47D Cells
(§2) One day before the experiment, PC-3 or T-47D cells were seeded in 6-well plates (≈1 × 10^6 cells per well). Next day, the cells were rinsed with ice-cold internalization medium (IM, RPMI-1640 GlutaMAX-I, supplemented by 1% (v/v) FBS). […] [^99mTc]Tc-DB15 (250 fmol total peptide in 150 µL 0.5% BSA-PBS) was added in all wells and the plates were incubated at for 15 min, 30 min, 1 h and 2 h at 37 °C in an Incubator-Orbital Shaker unit (MPM Instr. SrI, Bernareggio, MI, Italy). Cells were then placed on ice, the medium was collected, and the plates were rinsed with 0.5% BSA-PBS (1 mL). Membrane-bound fractions were collected after treatment in acid-wash solution (2 × 600 µL; 50 mM glycine buffer pH 2.8, 0.1 M NaCl). Internalized fractions were collected after treatment with 1 N NaOH (2 × 600 µL), as previously described. After counting of radioactivity of all collected fractions in the gamma counter, the percentage of specific internalized and membrane-bound fractions per time point were calculated with Microsoft Excel and the respective curves were drawn. Specific internalized and membrane-bound counts were determined by subtracting the respective non-specific from the respective total counts. Results represent specific internalized ±SD of total added radioactivity per well from three experiments performed in triplicate.

T-47D cells = assay: Time-dependent uptake of [99mTc]Tc-DB15 in T-47D cells; type: cell-based, human
Method: as §1, §2

[1] = 30 min incubation, 37 °C, 250 fmol total peptide, mean ± SD, three experiments in triplicate
[2] = all time points (15 min-2 h), results not shown

CCNC(=O)[C@H](CC(C)C)NC(=O)[C@H](Cc1c[nH]cn1)NC(=O)CN(C)C(=O)[C@@H](NC(=O)[C@H](C)NC(=O)[C@H](Cc1c[nH]c2ccccc12)NC(=O)[C@H](CCC(N)=O)NC(=O)[C@@H](Cc1ccccc1)NC(=O)COCC(=O)Nc1ccc(CNC(=O)C(CNCCN)CNCCN)cc1)C(C)C [DB15, N4-AMA-DGA-DPhe^6,Sar^11,LeuNHEt^13]BBN(6-13)]
IC50 (human GRPR): 0.37 ± 0.03 nM

[^99mTc]Tc-N4-AMA-DGA-DPhe^6,Sar^11,LeuNHEt^13]BBN(6-13) [[^99mTc]Tc-DB15]
Pathological findings on planar and SPECT/CT images (BC patients): increased uptake of [^99mTc]Tc-DB15 in the BC metastases in both patients
portion found within the cells (internalized) (PC-3 cells; 37 °C): < 6%
specific cell uptake (cell-associated fraction of total added activity) (PC-3 cells; [1]): 13.1 ± 0.1%
cell association in the presence of 1 μM [Tyr4]BBN (PC-3 cells; [2]): < 0.9%
portion found within the cells (internalized) (T-47D cells; 37 °C): < 6%
specific cell uptake (cell-associated fraction of total added activity) (T-47D cells; [1]): 24.2 ± 0.7%
cell association in the presence of 1 μM [Tyr4]BBN (T-47D cells; [2]): < 0.9%

From PMC8533986, “[^99mTc]Tc-DB15 in GRPR-Targeted Tumor Imaging with SPECT: From Preclinical Evaluation to the First Clinical Outcomes” (Cancers, 2021)
